BindingDB's records for patent US20260070887 (Shenzhen Zhongge Biological Technology Co., 2026)
pIC50: −log10 of the molar value.

Molecular target: T1, Kinesin-like protein KIF18A (Homo sapiens, UniProt Q8NI77)
T1 sequence (Q8NI77 whole entry): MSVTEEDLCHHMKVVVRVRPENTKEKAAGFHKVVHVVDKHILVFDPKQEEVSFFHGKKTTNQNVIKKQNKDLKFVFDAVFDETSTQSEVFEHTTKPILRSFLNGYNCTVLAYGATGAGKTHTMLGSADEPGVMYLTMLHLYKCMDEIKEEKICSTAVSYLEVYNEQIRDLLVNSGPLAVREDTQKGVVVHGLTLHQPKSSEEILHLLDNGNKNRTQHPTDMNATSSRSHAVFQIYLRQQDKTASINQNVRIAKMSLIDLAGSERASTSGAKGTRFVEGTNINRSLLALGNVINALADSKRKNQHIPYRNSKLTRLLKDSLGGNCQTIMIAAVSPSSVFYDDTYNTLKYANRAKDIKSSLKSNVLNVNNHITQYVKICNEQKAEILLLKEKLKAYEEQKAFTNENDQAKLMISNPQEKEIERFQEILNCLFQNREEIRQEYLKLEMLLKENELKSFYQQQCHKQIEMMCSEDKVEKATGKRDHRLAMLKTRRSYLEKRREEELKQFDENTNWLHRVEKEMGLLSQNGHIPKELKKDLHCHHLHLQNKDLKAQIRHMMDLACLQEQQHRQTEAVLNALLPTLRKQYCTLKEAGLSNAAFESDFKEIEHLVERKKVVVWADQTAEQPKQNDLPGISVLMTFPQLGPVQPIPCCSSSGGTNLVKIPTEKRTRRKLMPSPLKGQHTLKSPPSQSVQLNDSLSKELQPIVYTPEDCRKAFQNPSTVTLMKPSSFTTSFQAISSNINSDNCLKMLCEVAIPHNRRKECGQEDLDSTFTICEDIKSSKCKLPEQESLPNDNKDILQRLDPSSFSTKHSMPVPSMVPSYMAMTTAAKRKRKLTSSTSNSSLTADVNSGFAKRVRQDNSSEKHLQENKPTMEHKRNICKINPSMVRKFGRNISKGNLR
Assay: Assay of the Inhibitory Effects on KIF18A Activity In Vitro (ADP-Glo Assay)
Method: Experimental Method 1. Preparation of 30 mL of reaction buffer: (1) 450 μL 1M Tris-HCl (pH=7.5)+300 μL 1M MgCl2+30 μL 10% Pluronic F-68 (ThermoFisher, 24040032-100 ml); (2) adjusting pH to 7.5, and adding water to adjust the volume to 30 mL. 2. Preparation of a 5 mg/mL pig microtubule (Microtubules; MT) (Cytoskeleton Inc, MT002) stock solution: (1) 10 mL PM buffer=150 μL 1 M PIPES (pH 7.0)+20 μL 0.5 mM MgCl2+100 μL 2 mM Taxol (Cytoskeleton Inc, TXD01)+9730 μL water. (2) MT (500 ag/tube): Adding 100 μL PM buffer to prepare a 5 mg/mL stock solution. Keeping the MT (Cytoskeleton Inc, MT002) at room temperature for 10-15 minutes, gently mixing and storing same at −80° C. 3. Preparation of 2 mL of kinase buffer: 2 mL reaction buffer+1 μL 2 mM Taxol (Cytoskeleton Inc, TXD01)+12 μL 5 mg/mL MT (Cytoskeleton Inc, MT002). 4. Preparation of 2×KIF18A (30 nM) (ChemPartner, CPB-P22-31645) working solution: 2.4 μL 10 μM KIF18A (ChemPartner, CPB-P22-31645)+800 μL 1× kinase buffer. 5. Preparation of 2×ATP (150 μM) (Promega, G9101) working solution: 12 μL 10 mM ATP+800 μL 1× kinase buffer. 6. 25 nL of compound was transferred to a 384-well plate using Echo650. 7. 2.5 μL of 2×KIF18A from Step 4 (final concentration of 30 nM) was added to the 384-well plate and the plate was incubated at 25° C. for 15 minutes. 8. 2.5 μL of 2×ATP from Step 5 (final concentration of 150 μM) was added to the 384-well plate and the plate was incubated at 25° C. for 15 minutes. 9. 5 μL ADP-Glo™ Reagent (Promega, G9101) was added to the 384-well plate and the plate was incubated at 25° C. for 40 minutes. 10. 10 μL of kinase detection reagent (Promega, G9101) was added to the 384-well plate and the plate was incubated at 25° C. for 40 minutes. 11. Luminescence values were measured using the EnVision Xcite Multilabel Reader (PerkinElmer, 2105-0020).

IC50	pIC50	SMILES
	> 7.30	COc1ccc(NC(=O)c2ccc(NS(=O)(=O)CCO)cc2N2CCC3(CC2)CC3)c2cc3n(c12)CCOC3 [US20260070887, Example 404]
	> 7.30	CC1(C)Cn2c(cc3c(NC(=O)c4cnc(NS(=O)(=O)CCO)cc4N4CCC5(CC4)CC5)cccc32)CO1 [US20260070887, Example 454]
in the range around 275 nM		CC1(C)Cn2c(cc3c(NC(=O)c4ccc(NS(=O)(=O)c5ccc(N)cc5CCO)cc4N4CCC5(CC4)CC5)ccc(F)c32)CO1 [US20260070887, Example 519]

Continued, compound first:

SMILES	IC50	pIC50
Nc1ccc(S(=O)(=O)Nc2ccc(C(=O)Nc3ccnc4c3CCN4CC3CC3)c(N3CCC4(CC3)CC4)c2)c(CCO)c1 [US20260070887, Example 32]	in the range around 275 nM	
Nc1ccc(S(=O)(=O)Nc2ccc(C(=O)Nc3ccnc4c3ccn4CC3CC3)c(N3CCC4(CC3)CC4)c2)c(CCO)c1 [US20260070887, Example 33]		> 7.30
COc1ccc(C(=O)Nc2cccc3c2ccn3CC2CC2)c(N2CCC3(CC2)CC3)c1 [US20260070887, Example 127]		> 7.30
COC1c2cc3c(NC(=O)c4ccc(NS(=O)(=O)CCO)cc4N4CCC(=C(F)F)CC4)ccc(C#N)c3n2CCC1(F)F (centres undefined) [US20260070887, Example 427]		> 7.30
COc1ccc(NC(=O)c2ccc(NS(=O)(=O)CCO)cc2N2CCC3(CC2)CC3)c2cc3n(c12)CCC(F)(F)C3 [US20260070887, Example 478]		> 7.30
CC1(C)Cn2c(cc3c(NC(=O)c4ccc(NS(=O)(=O)CCO)cc4N4CCC(=C(F)F)CC4)ccc(Cl)c32)CO1 [US20260070887, Example 522]		> 7.30
